Test results as given in article PMC10829512, “Transport of metformin metabolites by guanidinium exporters of the small multidrug resistance family” (The Journal of General Physiology, 2024).
Values joined by “and” are separate entries in the source; they are usually repeats but may differ in a detail not shown here. Equal entries are not always repeated. Where two headings read alike, the source gives them in different places.

Legend:
Gdx-Clo [1] = target: T1, Gdx-Clo (Clostridiales bacterium oral taxon 876, UniProt U2EQ00); assay: Isothermal titration calorimetry (ITC); assay type: binding, Clostridales oral taxon 876; details: for n: ITC binding stoichiometry, pH 8.5, mean ± SEM; for Kd / TΔS / ΔG / ΔH / Binding stoichiometry: ITC; for Kd / TΔS / ΔG / ΔH: pH 8.5, 25°C, mean ± SEM; for Binding stoichiometry: pH 8.5, exothermic binding
T1 sequence (U2EQ00 1-105): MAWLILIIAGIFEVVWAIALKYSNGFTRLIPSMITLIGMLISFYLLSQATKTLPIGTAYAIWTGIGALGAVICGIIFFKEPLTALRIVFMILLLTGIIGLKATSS
Experimental: ITC experiments were conducted using a low-volume Nano ITC instrument (TA Instruments). […] For each experiment, 300 µl of 700 µM Gdx-Clo was loaded in the sample chamber maintained at 25°C with 350 rpm stirring speed. […] The sample was titrated (0.75 µl injections) at 100-s increments. Once an acceptable baseline slope was achieved (0.30 µW/h and 0.03 µW standard deviation), a 200 s baseline (∼112 µW) was taken prior to beginning titrations. Data were analyzed using NanoAnalyze software.
For both substrates, the Kd value measured using ITC was in good agreement with the Kd value obtained using tryptophan fluorescence, validating the tryptophan fluorescence approach to monitor substrate binding.

Gdx-Clo [2] = target: T1, Gdx-Clo; assay: SSM electrophysiology of Gdx-Clo proteoliposomes; assay type: biochemical, Clostridales oral taxon 876; details: for Transport currents in substrate screen: 2 mM substrate
Experimental: (§1) Gdx-Clo ([Kermani et al., 2018]), Gdx-Eco ([Kermani et al., 2018]), EmrE ([Kermani et al., 2022]), and Gdx-pAmi ([Martinez-Vaz et al., 2022]) construct design and purification have been described previously. […] Proteins were overexpressed in C41(DE3). Expression was induced by the addition of 0.2 mM IPTG for 3 h. Cells were lysed and extracted with 2% n-decyl-β-D-maltoside (DM) for 2 h. After pelleting insoluble cell debris, proteins were purified using cobalt affinity resin. Wash buffer contained 25 mM Tris, pH 8.5, 150 mM NaCl, and 5 mM DM. For Gdx-pAmi, NaCl concentration was increased to 500 mM NaCl. The affinity column was washed with wash buffer, then wash buffer with 10 mM imidazole, prior to elution with wash buffer with 400 mM imidazole. For Gdx-Clo and Gdx-Eco, histidine tags were cleaved with LysC (200 ng/mg of protein; 2 h at room temperature; New England Biolabs), and for all others, histidine tags were cleaved with thrombin (1 U/mg of protein, overnight at room temperature; MilliporeSigma). Proteins were further purified using a gel filtration Superdex200 column (Cytiva) equilibrated with 100 mM NaCl, 10 mM N-2-hydroxyethylpiperazine-N′-2-ethanesulfonic acid (HEPES), pH 7.5, and 5 mM DM. Purified proteins were stored at 4°C for up to 5 days before detergent binding assays. To prepare proteoliposomes for electrophysiology assays, purified protein was mixed with E. coli polar lipid extract (10 mg/ml; Avanti Polar Lipids) solubilized with 35 mM 3-[(3-cholamidopropyl)dimethylammonio]-1-propanesulfonate (CHAPS) at a protein to lipid ratio of 40 μg SMR transporter: mg lipid (1:370 protein:lipid molar ratio) prior to detergent removal by dialysis. For preparations that included Fluc-Bpe, liposomes were reconstituted with a molar ratio of 0.3 Fluc-Bpe:1 SMRGdx: 5920 lipid (1 μg Fluc-Bpe and ∼2.5 μg SMRGdx per mg lipid). For liposome transport assays, proteoliposomes were prepared similarly, except that a 2:1 mixture of 1-palmitoyl, 2-oleoylphosphatidylethanolamine (POPE) and 1-palmitoyl, 2-oleoylphosphatidylglycerol (POPG) (10 mg/ml; Avanti Polar Lipids) was used with 0.2 μg protein/mg lipid. Proteoliposomes were stored at −80°C until use.
(§2) SSM experiments were performed using SURFE^2R N1 instrument (Nanion Technologies). Sensors were prepared with a 1,2-diphytanoyl-sn-glycero-3-phosphocholine (DPhPC) lipid monolayer according to published protocols ([Bazzone et al., 2017]). Each sensor’s capacitance and conductance were verified before use (<80 nF capacitance, <50 nS conductance) using Nanion software protocols. Proteoliposome stock was diluted 1:25 in assay buffer (100 mM KCl, 100 mM KPO4, pH 7.5) prior to adsorption to the DPhPC monolayer. For substrate screening experiments, reference substrate samples (Gdm^+ for SMRGdx, and TPA^+ for SMRQac) were checked periodically to test for the stability of the sensor; if the current amplitude of the reference compound differed by >10% on one sensor, it indicated the desorption of liposomes, and the sensor was not used for further experiments. For every SSM electrophysiology experiment, we used the same general solution exchange protocol: after 2 s perfusion with a non-activating solution, we perfused substrate-containing buffer for 2 s and then returned to the equilibrium condition with a 4 s perfusion of non-activating buffer. For experiments with the S104C/A70C crosslinked variant, reducing conditions were established by the addition of 2.5 mM tris(2-carboxyethyl)phosphine (TCEP) to the activating and non-activating buffers.
(§3) We screened a series of metformin metabolites for transport using SSM electrophysiology (Fig. 2, A and B).

Gdx-Eco = Gdx-Eco (Escherichia coli, UniProt P69937); assay: SSM electrophysiology of Gdx-Eco proteoliposomes; assay type: biochemical; details: for Transport currents in substrate screen: 2 mM substrate; for Km: pH 7.5, mean ± SEM, read-out: Km determined using SSM electrophysiology
Experimental: as §1, §2, §3

Gdx-pAmi = assay: SSM electrophysiology of Gdx-pAmi proteoliposomes; assay type: biochemical, Aminobacter sp. MET; details: for Transport currents in substrate screen: 2 mM substrate; for Km: pH 7.5, mean ± SEM, read-out: Km determined using SSM electrophysiology
Experimental: as §1, §2, §3

[3] = pH 7.5, mean ± SEM, read-out: Km determined using SSM electrophysiology
[4] = substrate at fivefold Km, normalized to Fluc-Bpe fluoride current

Sequence of Gdx-Eco (P69937 whole entry): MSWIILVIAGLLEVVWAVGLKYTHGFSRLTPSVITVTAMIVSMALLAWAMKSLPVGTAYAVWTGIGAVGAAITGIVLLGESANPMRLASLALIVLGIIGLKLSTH

Row | Structure (SMILES) | n (Gdx-Clo [1]) | Kd (Gdx-Clo [1]) | TΔS (Gdx-Clo [1]) | ΔG (Gdx-Clo [1]) | ΔH (Gdx-Clo [1]) | Binding stoichiometry (Gdx-Clo [1]) | Transport currents in substrate screen (Gdx-Clo [2]) | Km (Gdx-Clo [2]; [3]) | Km (Gdx-Clo [2]; read-out: Km value) | Maximal velocity for Gdm+ relative to guanylurea (Gdx-Clo [2]; [4]) | Transport currents in substrate screen (Gdx-Eco) | Km (Gdx-Eco) | Maximal velocity for Gdm+ relative to guanylurea (Gdx-Eco; [4]) | Transport currents in substrate screen (Gdx-pAmi) | Km (Gdx-pAmi) | Turnover rate of Gdm+ relative to guanylurea (Gdx-pAmi; substrate at fivefold Km, normalized to Fluc-Bpe fluoride current and reconstitution efficiency) | Km (Gdx-pAmi; listed as guanylurea)
1 | N=C(N)N [Gdm^+, guanidinium] | 0.56 ± 0.04 | 410 ± 40 µM | -0.3 ± 0.9 kcal/mol | -4.6 ± 0.1 kcal/mol | -4.9 ± 1.0 kcal/mol | ~1 substrate per protein dimer | transported | 500 ± 100 µM | 500 µM | approximately twofold higher | negative capacitive currents | 1700 ± 500 µM | approximately twofold higher | negative capacitive currents | 16000 µM and 15700 µM | comparable | –
2 | N=C(N)NC(N)=O [Guanylurea, guanylurea] | 0.43 ± 0.03 | 140 ± 30 µM | -1.8 ± 0.6 kcal/mol | -5.4 ± 0.06 kcal/mol | -7.2 ± 0.6 kcal/mol | ~1 substrate per protein dimer | transported | 220 ± 60 µM | 220 µM | – | negative capacitive currents | 850 ± 100 µM | – | negative capacitive currents | 5200 ± 2000 µM | – | 5000 µM
